Patent publication US8513238B2 (Hoffmann-La Roche Inc., priority 2010, dated 2013)
Counter-ions that a name gives are not always drawn.

Target: T1, human V1a receptor (Homo sapiens, UniProt P37288)
T1 construct: expressed in transfected cells; host or cells: HEK293 cells, transiently transfected; membranes prepared
Assay: human V1a receptor binding (3H-Vasopressin SPA, HEK293 membranes)
Conditions: membranes of HEK293 cells transiently transfected with human V1a receptor, Ki by Cheng-Prussoff
Method in brief: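 HEK293 membranes transiently expressing cloned human V1a receptor, bound to yttrium silicate SPA beads in Tris/NaCl/KCl/CaCl2/MgCl2 buffer. Test compounds in 2% DMSO competed with 3H-vasopressin (4 nM solution added) for 1 h at room temperature; non-specific binding defined with cold vasopressin. IC50 from non-linear fit, Ki via Cheng-Prusoff.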

T1 sequence (P37288 whole entry): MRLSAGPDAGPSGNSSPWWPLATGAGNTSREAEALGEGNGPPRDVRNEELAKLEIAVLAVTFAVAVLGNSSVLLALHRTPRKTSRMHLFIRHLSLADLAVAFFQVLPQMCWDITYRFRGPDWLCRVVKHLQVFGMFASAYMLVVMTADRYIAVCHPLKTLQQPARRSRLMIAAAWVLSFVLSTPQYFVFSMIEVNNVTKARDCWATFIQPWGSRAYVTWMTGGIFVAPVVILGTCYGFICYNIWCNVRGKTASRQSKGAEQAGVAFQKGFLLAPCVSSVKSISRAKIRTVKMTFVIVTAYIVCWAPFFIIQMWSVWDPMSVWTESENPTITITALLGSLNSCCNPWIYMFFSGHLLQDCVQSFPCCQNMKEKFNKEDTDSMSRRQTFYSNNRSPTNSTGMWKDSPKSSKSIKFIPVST

SMILES | pKi (hV1a)
Cc1cc([C@H]2CC[C@H](c3nnc4n3-c3ccc(Cl)cc3CN(C(C)C)C4)CC2)no1 [Example 26, trans-8-Chloro-5-isoproyl-1-[4-(5-methyl-isoxazol-3-yl)-cyclohexyl]-5,6-dihydro-4H-2,3,5,10b-tetraaza-benzo[e]azulene] | 9.45

Same assay, conditions: membranes of HEK293 cells transiently transfected with human V1a receptor, Ki by Cheng-Prussoff, read-out: pKi (hV1a) (converted)

SMILES | Ki [nM]
CC(C)(C)OC(=O)N1Cc2cc(Cl)ccc2-n2c(nnc2[C@H]2CC[C@@H](c3noc4c3CCCC4)CC2)C1 [Example 57, cis-8-Chloro-1-[4-(4,5,6,7-tetrahydro-benzo[d]isoxazol-3-yl)-cyclohexyl]-4H,6H-2,3,5,10b-tetraaza-benzo[e]azulene-5-carboxylic acid tert-butyl ester] | 46.8
CCc1nc([C@H]2CC[C@@H](c3nnc4n3-c3ccc(Cl)cc3CNC4)CC2)no1 [Example 89, cis-8-Chloro-1-[4-(5-ethyl-[1,2,4]oxadiazol-3-yl)-cyclohexyl]-5,6-dihydro-4H-2,3,5,10b-tetraaza-benzo[e]azulene hydrochloride] | 2750
Cc1nc([C@H]2CC[C@H](c3nnc4n3-c3ccc(Cl)cc3CN(C(=O)OC(C)(C)C)C4)CC2)no1 [Example 72, trans-8-Chloro-1-[4-(5-methyl-[1,2,4]oxadiazol-3-yl)-cyclohexyl]-4H,6H-2,3,5,10b-tetraaza-benzo[e]azulene-5-carboxylic acid tert-butyl ester] | 0.708
CC(C)c1nc([C@H]2CC[C@H](c3nnc4n3-c3ccc(Cl)cc3CN(C)C4)CC2)no1 [Example 94] | 19.5
CN1Cc2cc(Cl)ccc2-n2c(nnc2[C@H]2CC[C@H](c3noc4c3CCC4)CC2)C1 [Example 107, trans-8-Chloro-1-[4-(5,6-dihydro-4H-cyclopenta[d]isoxazol-3-yl)-cyclohexyl]-5-methyl-5,6-dihydro-4H-2,3,5,10b-tetraaza-benzo[e]azulene] | 1.58
Clc1ccc2c(c1)CNCc1nnc([C@H]3CC[C@H](c4ncco4)CC3)n1-2 [Example 2, trans-8-Chloro-1-(4-oxazol-2-yl-cyclohexyl)-5,6-dihydro-4H-2,3,5,10b-tetraaza-benzo[e]azulene] | 53.7
Cc1cnc([C@H]2CC[C@H](c3nnc4n3-c3ccc(Cl)cc3CNC4)CC2)o1 [Example 8, trans-8-Chloro-1-[4-(5-methyl-oxazol-2-yl)-cyclohexyl]-5,6-dihydro-4H-2,3,5,10b-tetraaza-benzo[e]azulene] | 18.6
CC(C)c1nc([C@H]2CC[C@H](c3nnc4n3-c3ccc(Cl)cc3CNC4)CC2)no1 [Example 93, trans-8-Chloro-1-[4-(5-isopropyl-[1,2,4]oxadiazol-3-yl)-cyclohexyl]-5,6-dihydro-4H-2,3,5,10b-tetraaza-benzo[e]azulene hydrochloride] | 263
Cc1nc([C@H]2CC[C@H](c3nnc4n3-c3ccc(Cl)cc3CNC4)CC2)sc1C [Example 105, trans-8-Chloro-1-[4-(4,5-dimethyl-thiazol-2-yl)-cyclohexyl]-5,6-dihydro-4H-2,3,5,10b-tetraaza-benzo[e]azulene] | 21.9
CCc1nc([C@H]2CC[C@H](c3nnc4n3-c3ccc(Cl)cc3CN(C(=O)OC(C)(C)C)C4)CC2)no1 [Example 86, trans-8-Chloro-1-[4-(5-ethyl-[1,2,4]oxadiazol-3-yl)-cyclohexyl]-4H,6H-2,3,5,10b-tetraaza-benzo[e]azulene-5-carboxylic acid tert-butyl ester] | 3.09
Clc1ccc2c(c1)CNCc1nnc([C@H]3CC[C@@H](c4noc5c4CCCC5)CC3)n1-2 [Example 58, cis-8-Chloro-1-[4-(4,5,6,7-tetrahydro-benzo[d]isoxazol-3-yl)-cyclohexyl]-5,6-dihydro-4H-2,3,5,10b-tetraaza-benzo[e]azulene] | 191
Cc1cc([C@H]2CC[C@H](c3nnc4n3-c3ccc(Cl)cc3CN(S(C)(=O)=O)C4)CC2)no1 [Example 34, trans-8-Chloro-5-methanesulfonyl-1-[4-(5-methyl-isoxazol-3-yl)-cyclohexyl]-5,6-dihydro-4H-2,3,5,10b-tetraaza-benzo[e]azulene] | 0.275
Cc1nsc([C@H]2CC[C@H](c3nnc4n3-c3ccc(Cl)cc3CN(C(=O)OC(C)(C)C)C4)CC2)n1 [Example 69, trans-8-Chloro-1-[4-(3-methyl-[1,2,4]thiadiazol-5-yl)-cyclohexyl]-4H,6H-2,3,5,10b-tetraaza-benzo[e]azulene-5-carboxylic acid tert-butyl ester] | 1.51
Cc1cc([C@H]2CC[C@H](c3nnc4n3-c3ccc(Cl)cc3CN(C)C4)CC2)no1 [Example 24, trans-8-Chloro-1-[4-(5-methyl-isoxazol-3-yl)-cyclohexyl]-5-methyl-5,6-dihydro-4H-2,3,5,10b-tetraaza-benzo[e]azulene] | 1.2
Clc1ccc2c(c1)CNCc1nnc([C@H]3CC[C@H](c4noc5c4CCCC5)CC3)n1-2 [Example 55, trans-8-Chloro-1-[4-(4,5,6,7-tetrahydro-benzo[d]isoxazol-3-yl)-cyclohexyl]-5,6-dihydro-4H-2,3,5,10b-tetraaza-benzo[e]azulene] | 5.89
CN1Cc2cc(Cl)ccc2-n2c(nnc2[C@H]2CC[C@H](c3noc4c3CCCC4)CC2)C1 [Example 56, trans-8-Chloro-5-methyl-1-[4-(4,5,6,7-tetrahydro-benzo[d]isoxazol-3-yl)-cyclohexyl]-5,6-dihydro-4H-2,3,5,10b-tetraaza-benzo[e]azulene] | 1.58
CC(C)(C)OC(=O)N1Cc2cc(Cl)ccc2-n2c(nnc2[C@H]2CC[C@H](c3onc4c3CCCC4)CC2)C1 [Example 60, trans-8-Chloro-1-[4-(4,5,6,7-tetrahydro-benzo[c]isoxazol-3-yl)-cyclohexyl]-4H,6H-2,3,5,10b-tetraaza-benzo[e]azulene-5-carboxylic acid tert-butyl ester] | 15.5
CN1Cc2cc(Cl)ccc2-n2c(nnc2[C@H]2CC[C@H](c3onc4c3CCCC4)CC2)C1 [Example 62, trans-8-Chloro-5-methyl-1-[4-(4,5,6,7-tetrahydro-benzo[c]isoxazol-3-yl)-cyclohexyl]-5,6-dihydro-4H-2,3,5,10b-tetraaza-benzo[e]azulene] | 6.31
CCN1Cc2cc(Cl)ccc2-n2c(nnc2[C@H]2CC[C@H](c3noc(C)n3)CC2)C1 [Example 75, trans-8-Chloro-5-ethyl-1-[4-(5-methyl-[1,2,4]oxadiazol-3-yl)-cyclohexyl]-5,6-dihydro-4H-2,3,5,10b-tetraaza-benzo[e]azulene] | 6.76
CC(=O)N1Cc2cc(Cl)ccc2-n2c(nnc2[C@H]2CC[C@H](c3noc(C)n3)CC2)C1 [Example 80, trans-1-{8-Chloro-1-[4-(5-methyl-[1,2,4]oxadiazol-3-yl)-cyclohexyl]-4H,6H-2,3,5,10b-tetraaza-benzo[e]azulen-5-yl}-ethanone] | 22.9
COCCN1Cc2cc(Cl)ccc2-n2c(nnc2[C@H]2CC[C@H](c3cc(C)on3)CC2)C1 [Example 29, trans-8-Chloro-5-(2-methoxy-ethyl)-1-[4-(5-methyl-isoxazol-3-yl)-cyclohexyl]-5,6-dihydro-4H-2,3,5,10b-tetraaza-benzo[e]azulene] | 1.58
CCc1cc([C@H]2CC[C@@H](c3nnc4n3-c3ccc(Cl)cc3CNC4)CC2)no1 [Example 50, cis-8-Chloro-1-[4-(5-ethyl-isoxazol-3-yl)-cyclohexyl]-5,6-dihydro-4H-2,3,5,10b-tetraaza-benzo[e]azulene hydrochloride] | 182
